Entries after “also recorded” stand apart in the source; their conditions may differ.
Key:
FimH = biological target: T1, FimH (Escherichia coli, UniProt P08191); experiment: Hemagglutination inhibition (HAI) assay, guinea pig red blood cells; format: cell-based, E. coli; conditions: concentration inhibiting >90% hemagglutination of guinea pig red blood cells
T1 construct: endogenous in cells; host or cells: type 1 piliated uropathogenic E. coli (UPEC)
Description: FIG. 15 depicts the hemagglutination assay (HA) used to assess the compounds' ability to block FimH mediated binding. The HAI titer quantitatively measure the effect of inhibitors on blocking the FimH-mediated hemagglutination (HA) of guinea pig red blood cell infected with E. coli.
In some embodiments, activity of the compound is measured using hemmagglutination titer of guinea pig red blood cells. Hemagglutination of guinea pig red blood cells by type1 piliated UPEC is dependent upon FimH mannose binding ability and serial dilutions allow a quantitative analysis.
Hemagglutination assays for mannose-sensitive agglutination of guinea pig red blood cells were performed as previously described.

UTI89 = experiment: Mouse model of acute UTI, bladder bacterial CFU after UTI89 infection; format: in vivo, Escherichia coli; conditions: for total bacterial CFUs in the bladder: mice, 6 hpi
Description: The efficacy of in vivo mannoside treatment was evaluated after orally dosing animals with 50 mg/kg of mannosides ZFH-4269 (FIG. 1A), ZFH-5254 (FIG. 1B) and ZFH-5240 (FIG. 1C) or DMSO or PBS 30 min prior to infecting with UTI89. At 6 hours post-infection (hpi) the bladders were removed and total bacterial CFUs were quantitated. […] Next, analogs of 254 were evaluated in the same mouse model of urinary tract infection. Animals were orally dosed with 25 mg/kg of mannosides ZFH-4269 (FIG. 2A), 1CJ68 (FIG. 2B) and 1CJ70 (FIG. 2C) in 10% cyclodextrin or 10% cyclodextrin 30 min prior to infecting with UT189.
The efficacy of in vivo mannoside treatment was evaluated after orally dosing animals with 25 mg/kg of mannosides ZFH269, Prodrug FIM-4269, ZFH-5254, and ZFH-5240 in 10% cyclodextrin or 10% cyclodextrin 30 min prior to infecting with UTI89. At 6 hours post-infection (hpi) the bladders were removed and total bacterial CFUs were quantitated. […] Next, several different prodrugs were evaluated in the same mouse model of urinary tract infection. Animals were orally dosed with 25 mg/kg of mannosides ZFH-4269, prodrug FIM-1233 (FIG. 8B), prodrug FIM-6123 (FIG. 8C) and prodrug 269 in 10% cyclodextrin or 10% cyclodextrin 30 min prior to infecting with UT189.
The FimH-mannose interaction was further investigated in an effort to develop potential ligand-based antagonists of UTIs. […] The non-reducing Man4 anchors into the mannose-binding pocket while the GlcNAc folds over Thr51 allowing specific interactions with a hydrophobic tyrosine gate. Heptyl mannoside mimics the GlcNAc tail of oligomannose-3 and extends it further to increase interactions outside the binding pocket resulting in high affinity binding (Kd=5 nM). Based on the high affinity of heptyl mannose for FimH, the ability of heptyl mannose to reduce bacterial infection in our mouse model of UTI was tested. First, biofilm formation as a surrogate for IBCs formed in the bladder was evaluated. […] Thus, UPEC strain UTI89 was incubated with heptyl mannose prior to inoculation into the bladders of mice.
Bacteria were grown under type 1 pili-inducing conditions (2×24 h at 37° C. statically in LB). The bacteria were harvested and resuspended to an OD600 of 0.5 in PBS. Eight-week-old C3H/HeN (Harlan) female mice were anesthetized by inhalation of isoflurane and infected via transurethral catheterization with […] of the bacterial suspension, resulting in 1-2×10^7 inoculum. At 6 hpi, mice were sacrificed by cervical dislocation under anesthesia and the bladders were immediately harvested and processed as described below. All animal studies using mice were approved by the Animal Studies Committee of Washington University (Animal Protocol Number 20100002).
Mannoside ZFH-2056 was administered either IP (5 mg/kg) or orally (100 mg/kg) 30 min prior to inoculation with UTI89. To enumerate the bacteria present, mice were sacrificed at 6 hpi and bladders were aseptically removed and homogenized in 1 ml PBS, serially diluted and plated onto LB agar plates. CFU was enumerated after 16 h of growth at 37° C.

[1] = Mouse oral PK, mannoside concentration in urine; format: in vivo; conditions: mice, 50 mg/kg oral; samples at 1, 3, 6 and 8 hours
Description: Compounds ZFH-4269 (FIG. 6A), ZFH-5254 (FIG. 6B), ZFH5240 (FIG. 6C), and a Prodrug were dosed at 50 mg/kg and plasma and urine samples were taken at 1, 3, 6 and 8 hours after dosing. […] Taken together, the high oral bioavailability and in vivo efficacy observed in animal studies support mannosides as promising therapeutic candidates for UTI treatment/prevention.
For intraperitoneal dosing, 50 μl of a 2 mg/ml (5 mg/kg) or 4 mg/ml (10 mg/kg) solution of ZFH-2056 in PBS was injected into the peritoneal cavity of the mouse. For oral dosing, 100 μl of a 20 mg/ml (100 mg/kg) solution of ZFH-2056 in 8% DMSO was inoculated with a gavage needle into the mouse stomach. Urine was collected at 30 min, 1, 2, 3, 4, 6, and 8 h post-treatment. An equal volume of 10 μM internal standard (ZFH-2050) was added to the urine. Mannosides were extracted from the urine by loading on C18 columns (100 mg, Waters), washing with 30% methanol, and eluting with 60% methanol. Vacuum-concentrated eluates were analyzed using liquid chromatography-mass spectrometry system30 with a lower heated capillary temperature of 190° C. and a gradiert as follows: Solvent B (80% acetonitrile in 0.1% formic acid) was held constant at 5% for 5 minutes, increased to 44% B by 45 minutes, and then to a 95% B by 65 minutes. SRM mode quantification was performed with collision gas energy of 30% for the following MS/MS transitions (precursor m/z/product m/z): compound ZFH-2056, 447/285; compound ZFH-2050, 390/228. Absolute quantification was achieved by comparison to a calibration curve.

[2] = 25 mg/kg oral in 10% cyclodextrin 30 min prior to infecting with UTI89

T1 sequence (P08191 22-300): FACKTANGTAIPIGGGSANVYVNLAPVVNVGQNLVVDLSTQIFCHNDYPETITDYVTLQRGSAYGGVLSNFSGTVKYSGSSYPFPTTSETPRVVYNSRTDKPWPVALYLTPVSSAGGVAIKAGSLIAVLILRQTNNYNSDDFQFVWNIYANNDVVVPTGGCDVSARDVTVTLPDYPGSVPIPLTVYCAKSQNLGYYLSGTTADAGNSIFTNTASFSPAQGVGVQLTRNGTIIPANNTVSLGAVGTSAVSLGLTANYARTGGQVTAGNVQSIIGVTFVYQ

**Q.** For `Cc1cc(-c2ccc3cc[nH]c(=O)c3c2)ccc1O[C@H]1O[C@@H](CO)[C@@H](O)[C@H](O)[C@H]1O` [Example 7, 7-[3-methyl-4-[(2R,3R,4S,5S,6S)-3,4,5-trihydroxy-6-(hydroxymethyl)tetrahydropyran-2-yl]oxy-phenyl]-2H-isoquinolin-1-one], which “HAI Titer EC>90” value (FimH) is on record?
**A.** 0.030 µM

**Q.** And the “total bacterial CFUs in the bladder” value (UTI89; [2])?
**A.** drop in bacterial counts

**Q.** What about the “total bacterial CFUs in the bladder” value (UTI89; 50 mg/kg oral 30 min prior to infecting with UTI89, vs DMSO or PBS, listed as 254, 50 mg/kg) of the same compound?
**A.** reduced bacterial titers in the bladder relative to DMSO and PBS

**Q.** And the “total bacterial CFUs in the bladder” value (UTI89; 50 mg/kg oral 30 min prior to infecting with UTI89, vs DMSO or PBS, listed as ZFH-5254, 50 mg/kg)?
**A.** drop in bacterial counts

**Q.** And the detectability in urine [1]?
**A.** detectable in the urine out to 8 hours post-treatment

**Q.** With `Cc1cc(-c2ccc3ccn(CC(=O)NCCN)c(=O)c3c2)ccc1OC1OC(CO)C(O)C(O)C1O` [Example 13, N-(2-aminoethyl)-2-[7-[3-methyl-4-[(2R,3R,4S,5S,6S)-3,4,5-trihydroy-6-(hydroxymethyl)tetrahydropyran-2-yl]oxy-phenyl]-1-oxo-2-isoquinolyl]acetamide] as the compound, how does the “HAI Titer EC>90” value (FimH) read?
**A.** 0.016 µM

**Q.** For `Cc1cc(-c2ccc3ccn(CCN(C)C)c(=O)c3c2)ccc1O[C@H]1O[C@@H](CO)[C@@H](O)[C@H](O)[C@H]1O` [Example 14, 2-(2-dimethylaminoethyl)-7-[3-methyl-4-[(2R,3R,4S,5S,6S)-3,4,5-trihydroxy-6-(hydroxymethyl)tetrahydropyran-2-yl]oxy-phenyl]isoquinolin-1-one], which “HAI Titer EC>90” value (FimH) is on record?
**A.** 0.012 µM

**Q.** For `Cc1cc(-c2ccc3ccn(Cc4ccncc4)c(=O)c3c2)ccc1O[C@H]1O[C@@H](CO)[C@@H](O)[C@H](O)[C@H]1O` [Example 15, 7-[3-methyl-4-[(2R,3R,4S,5S,6S)-3,4,5-trihydroxy-6-(hydroxymethyl)tetrahydropyran-2-yl]oxy-phenyl]-2-(4-pyridylmethyl)isoquinolin-1-one], which “HAI Titer EC>90” value (FimH) is on record?
**A.** 0.004 µM

**Q.** Which “HAI Titer EC>90” value (FimH) does the source give for `Cc1cc(-c2ccc3ccn(Cc4cccnc4)c(=O)c3c2)ccc1O[C@H]1O[C@@H](CO)[C@@H](O)[C@H](O)[C@H]1O` [Example 16, 7-[3-methyl-4-[(2R,3R,4S,5S,6S)-3,4,5-trihydroxy-6-(hydroxymethyl)tetrahydropyran-2-yl]oxy-phenyl]-2-(3-pyridylmethyl)isoquinolin-1-one] here?
**A.** 0.008 µM

**Q.** Which “HAI Titer EC>90” value (FimH) does the source give for `CNC(=O)c1sc(-c2ccc(O[C@H]3O[C@@H](CO)[C@@H](O)[C@H](O)[C@H]3O)c(C)c2)cc1NC(N)=O` [Example 17, N-methyl-5-[3-methyl-4-[(2R,3R,4S,5S,6S)-3,4,5-trihydroxy-6-(hydroxymethyl)tetrahydropyran-2-yl]oxy-phenyl]-3-ureido-thiophene-2-carboxamide] here?
**A.** 0.024 µM

**Q.** For `CNC(=O)c1cccc(-c2ccc(C[C@H]3O[C@@H](CO)[C@@H](O)[C@H](O)[C@H]3O)c(C)c2)c1` [Example 19, N-methyl-3-[3-methyl-4-[[(2R,3R,4R,5S,6S)-3,4,5-trihydroxy-6-(hydroxymethyl)tetrahydropyran-2-yl]methyl]phenyl]benzamide], which “HAI Titer EC>90” value (FimH) is on record?
**A.** 2.000 µM

**Q.** Which “total bacterial CFUs in the bladder” value (UTI89; [2]) does the source give for `CNC(=O)c1cccc(-c2ccc(OC3OC(COP(=O)(O)O)C(O)C(O)C3O)c(C)c2)c1` [Example 21, [(2S,3S,4S,5R,6R)-3,4,5-trihydroxy-6-[2-methyl-4-[3-(methylcarbamoyl)phenyl]phenoxy]tetrahydropyan-2-yl]methyl dihydrogen phosphate] here?
**A.** drop in bacterial counts

**Q.** With `CNC(=O)c1cccc(-c2ccc(O[C@H]3O[C@@H](COC(=O)CN(C)C)[C@@H](O)[C@H](O)[C@H]3O)c(C)c2)c1` [Example 22, [(2S,3S,4S,5R,6R)-3,4,5-trihydroxy-6-[2-methyl-4-[3-(methylcarbamoyl)phenyl]phenoxy]tetrahydropyran-2-yl]methyl 2-dimethylaminoacetate] as the compound, how does the “total bacterial CFUs in the bladder” value (UTI89; [2]) read?
**A.** drop in bacterial counts

**Q.** With `CNC(=O)c1cccc(-c2ccc(O[C@H]3O[C@@H](CO)[C@@H](O)[C@H](O)[C@H]3O)c(C)c2)c1` [ZFH-4269, N-methyl-3-[3-methyl-4-[(2R,3R,4S,5S,6S)-3,4,5-trihydroxy-6-(hydroxymethyl)tetrahydropyran-2-yl]oxy-phenyl]benzamide] as the compound, how does the bladder titers (UTI89; acute UTI model (FIG. 27D)) read?
**A.** significantly reduce bladder titers

**Q.** What about the “total bacterial CFUs in the bladder” value (UTI89; 25 mg/kg oral in 10% cyclodextrin 30 min prior to infecting with UTI89, 25 mg/kg) of the same compound?
**A.** drop in bacterial counts

**Q.** What about the “total bacterial CFUs in the bladder” value (UTI89; 25 mg/kg oral in 10% cyclodextrin 30 min prior to infecting with UTI89, listed as ZFH269, 25 mg/kg) of the same compound?
**A.** drop in bacterial counts; also recorded: most efficiently reduced bacterial titers in the bladder; also recorded: significantly reduced bacterial titers in the bladder

**Q.** And the “total bacterial CFUs in the bladder” value (UTI89; 50 mg/kg oral 30 min prior to infecting with UTI89, vs DMSO or PBS, 50 mg/kg)?
**A.** drop in bacterial counts

**Q.** And the “total bacterial CFUs in the bladder” value (UTI89; 50 mg/kg oral 30 min prior to infecting with UTI89, vs DMSO or PBS, listed as 269, 50 mg/kg)?
**A.** reduced bacterial titers in the bladder relative to DMSO and PBS

**Q.** What about the detectability in urine [1] of the same compound?
**A.** detectable in the urine out to 8 hours post-treatment
